Assay results reported in patent publication US6737383B1, “Herbicidal oxadiazolidines” (priority 1999, dated 2004).

What was measured:
Green foxtail [1] = test: Test D green foxtail; type: in vivo; details: Preemergence, 0 to 100 scale
How it was run: (§1)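 Greenhouse pots, sandy loam, single species per pot. Preemergence tests: soil-surface application ≤1 day after planting. Compound formulated in non-phytotoxic solvent with surfactant. Visual rating 14–21 DAT, scale 0–100.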

dallisgrass = test: Test D dallisgrass; type: in vivo, Paspalum dilatatum; details: Preemergence, 0 to 100 scale
How it was run: as §1

surinam grass = test: Test D surinam grass; type: in vivo, Brachiaria decumbens; details: Preemergence, 0 to 100 scale
How it was run: as §1

goosegrass = test: Test D goosegrass; type: in vivo, Eleusine indica; details: Preemergence, 0 to 100 scale
How it was run: as §1

Johnson grass = test: Test D Johnson grass; type: in vivo, Sorghum halepense; details: Preemergence, 0 to 100 scale
How it was run: as §1

pitted morningglory = test: Test D pitted morningglory; type: in vivo, Ipomoea lacunosa; details: Preemergence, 0 to 100 scale
How it was run: as §1

common pursiane = test: Test D common purslane; type: in vivo, Portulaca oleracea; details: Preemergence, 0 to 100 scale
How it was run: as §1

Spanishneedles = test: Test D Spanishneedles; type: in vivo, Bidens bipinnata; details: Preemergence, 0 to 100 scale
How it was run: as §1

Alexandergrass = test: Test D Alexandergrass; type: in vivo, Brachiaria plantaginea; details: Preemergence, 0 to 100 scale
How it was run: as §1

itchgrass = test: Test D itchgrass; type: in vivo, Rottboellia exaltata; details: Preemergence, 0 to 100 scale
How it was run: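 Scoring used a 0–100 visual injury scale, with 0 meaning no effect and 100 complete control, assessed 14–21 days after application alongside untreated pots. Preemergence treatments went onto sandy loam surfaces of separately potted seeds within a day of sowing.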

tall mallow = test: Test D tall mallow; type: in vivo, Malva sylvestris; details: Preemergence, 0 to 100 scale
How it was run: as §1

sandbur = test: Test D sandbur; type: in vivo, Cenchrus echinatus; details: Preemergence, 0 to 100 scale
How it was run: as §1

common groundsel = test: Test D common groundsel; type: in vivo, Senecio vulgaris; details: Preemergence, 0 to 100 scale
How it was run: as §1

Green foxtail [2] = test: Test D green foxtail; type: in vivo
How it was run: as §1

bermuda-grass = test: Test D bermudagrass; type: in vivo, Cynodon dactylon; details: Preemergence, 0 to 100 scale
How it was run: as §1

[3] = Rate 16 g/ha, 0 no injury, 100 complete control
[4] = Rate 32 g/ha, 0 no injury, 100 complete control
[5] = Rate 64 g/ha, 0 no injury, 100 complete control
[6] = Rate 125 g/ha, 0 no injury, 100 complete control
[7] = Rate 64 g/ha, Preemergence; 0 to 100 scale, 0 no injury, 100 complete control
[8] = Rate 125 g/ha, Preemergence; 0 to 100 scale, 0 no injury, 100 complete control

## CC(C)N(C(=O)n1oc(=O)n(Cc2cccs2)c1=O)c1ccccc1 [Compound 103]
Green foxtail [1]; Rate 250 g/ha
  Plant response rating, Green foxtail: 100
Green foxtail [1]; Rate 500 g/ha
  Plant response rating, Green foxtail: 100
dallisgrass; [3]
  Plant response rating, Dallisgrass: 10
dallisgrass; [4]
  Plant response rating, Dallisgrass: 20
dallisgrass; [5]
  Plant response rating, Dallisgrass: 45
dallisgrass; [6]
  Plant response rating, Dallisgrass: 65
dallisgrass; Rate 250 g/ha
  Plant response rating, Dallisgrass: 98
dallisgrass; Rate 500 g/ha
  Plant response rating, Dallisgrass: 100
Surinam grass; [3]
  Plant response rating, Surinam grass: 0
Surinam grass; [4]
  Plant response rating, Surinam grass: 0
Surinam grass; [5]
  Surinam grass plant response rating: 0
Surinam grass; [6]
  Surinam grass plant response rating: 0
Surinam grass; Rate 250 g/ha
  Plant response rating, Surinam grass: 0
Surinam grass; Rate 500 g/ha
  Plant response rating, Surinam grass: 40
goosegrass; [3]
  Plant response rating, Goosegrass: 0
goosegrass; [4]
  Plant response rating, Goosegrass: 30
goosegrass; [5]
  Plant response rating, Goosegrass: 65
goosegrass; [6]
  Plant response rating, Goosegrass: 85
goosegrass; Rate 250 g/ha
  Plant response rating, Goosegrass: 98
goosegrass; Rate 500 g/ha
  Plant response rating, Goosegrass: 100
Johnson grass; [3]
  Plant response rating, Johnsongrass: 0
Johnson grass; [4]
  Plant response rating, Johnsongrass: 0
Johnson grass; [5]
  Plant response rating, Johnsongrass: 0
Johnson grass; [6]
  Plant response rating, Johnsongrass: 0
Johnson grass; Rate 250 g/ha
  Plant response rating, Johnsongrass: 0
Johnson grass; Rate 500 g/ha
  Plant response rating, Johnsongrass: 40
Pitted morningglory; [3]
  Plant response rating, P. morninglory: 0
Pitted morningglory; [4]
  Plant response rating, P. morninglory: 0
Pitted morningglory; [5]
  Plant response rating, P. morninglory: 0
Pitted morningglory; [6]
  Plant response rating, P. morninglory: 0
Pitted morningglory; Rate 250 g/ha
  Plant response rating, P. morninglory: 0
Pitted morningglory; Rate 500 g/ha
  Plant response rating, P. morninglory: 0
Common pursiane; [3]
  Plant response rating, C. purslane: 0
Common pursiane; [4]
  Plant response rating, C. purslane: 0
Common pursiane; [5]
  Plant response rating, C. purslane: 0
Common pursiane; [6]
  Plant response rating, C. purslane: 0
Common pursiane; Rate 250 g/ha
  Plant response rating, C. purslane: 0
Common pursiane; Rate 500 g/ha
  Plant response rating, C. purslane: 0
Spanishneedles; [3]
  Plant response rating, Spanishneedles: 0
Spanishneedles; [4]
  Plant response rating, Spanishneedles: 0
Spanishneedles; [5]
  Spanishneedles plant response rating: 0
Spanishneedles; [6]
  Spanishneedles plant response rating: 0
Spanishneedles; Rate 500 g/ha
  Plant response rating, Spanishneedles: 20
Alexandergrass; [3]
  Plant response rating, Alexandergrass: 0
Alexandergrass; [4]
  Plant response rating, Alexandergrass: 0
Alexandergrass; [5]
  Plant response rating, Alexandergrass: 0
Alexandergrass; [6]
  Plant response rating, Alexandergrass: 40
Alexandergrass; Rate 250 g/ha
  Plant response rating, Alexandergrass: 85
Alexandergrass; Rate 500 g/ha
  Plant response rating, Alexandergrass: 95
itchgrass; [3]
  Plant response rating, Itchgrass: 0
itchgrass; [4]
  Plant response rating, Itchgrass: 0
itchgrass; [5]
  Plant response rating, Itchgrass: 0
itchgrass; [6]
  Plant response rating, Itchgrass: 0
itchgrass; Rate 250 g/ha
  Plant response rating, Itchgrass: 0
itchgrass; Rate 500 g/ha
  Plant response rating, Itchgrass: 0
Tall mallow; [3]
  Plant response rating, Tall Mallow: 0
Tall mallow; [4]
  Plant response rating, Tall Mallow: 0
Tall mallow; [5]
  Tall Mallow plant response rating: 0
Tall mallow; [6]
  Tall Mallow plant response rating: 0
Tall mallow; Rate 250 g/ha
  Plant response rating, Tall Mallow: 0
Tall mallow; Rate 500 g/ha
  Plant response rating, Tall Mallow: 0
sandbur; [3]
  Plant response rating, Sandbur: 0
sandbur; [4]
  Plant response rating, Sandbur: 0
sandbur; [5]
  Sandbur plant response rating: 0
sandbur; [6]
  Sandbur plant response rating: 0
sandbur; Rate 250 g/ha
  Plant response rating, Sandbur: 75
sandbur; Rate 500 g/ha
  Plant response rating, Sandbur: 100
Common groundsel; [3]
  Plant response rating, Com. groundsel: 0
Common groundsel; [4]
  Plant response rating, Com. groundsel: 0
Common groundsel; [5]
  Plant response rating, Com. groundsel: 0
Common groundsel; [6]
  Plant response rating, Com. groundsel: 0
Common groundsel; Rate 250 g/ha
  Plant response rating, Com. groundsel: 0
Common groundsel; Rate 500 g/ha
  Plant response rating, Com. groundsel: 0
Green foxtail [2]; Preemergence; Rate 16 g/ha; 0 to 100 scale, 0 no injury, 100 complete control
  Plant response rating, Green foxtail: 0
Green foxtail [2]; Preemergence; Rate 32 g/ha; 0 to 100 scale, 0 no injury, 100 complete control
  Plant response rating, Green foxtail: 0
Green foxtail [2]; Rate 16 g/ha; Preemergence; 0 to 100 scale, 0 no injury, 100 complete control
  Plant response rating, Green foxtail: 0
Green foxtail [2]; Rate 32 g/ha; Preemergence; 0 to 100 scale, 0 no injury, 100 complete control
  Plant response rating, Green foxtail: 85
Green foxtail [2]; [7]
  Green foxtail plant response rating: 50
  Plant response rating, Green foxtail: 50
Green foxtail [2]; [8]
  Green foxtail plant response rating: 100
  Plant response rating, Green foxtail: 100
Green foxtail [2]; Rate 250 g/ha; Preemergence; 0 to 100 scale
  Plant response rating, Green foxtail: 100
Green foxtail [2]; Rate 500 g/ha, Preemergence; 0 to 100 scale
  Plant response rating, Green foxtail: 100
bermuda-grass; [3]
  Plant response rating, Bermudagrass: 30
bermuda-grass; [4]
  Plant response rating, Bermudagrass: 30
bermuda-grass; [5]
  Plant response rating, Bermudagrass: 60
bermuda-grass; [6]
  Plant response rating, Bermudagrass: 80
bermuda-grass; Rate 250 g/ha
  Plant response rating, Bermudagrass: 100
bermuda-grass; Rate 500 g/ha
  Plant response rating, Bermudagrass: 100
